≈ marks a conversion by molar mass, not a printed value.
How the values were obtained:
MRSA 1584 = assay: Mode of antimicrobial action with gentamicin, aac(6')/aph(2')-positive strain; type: cell-based, Staphylococcus aureus; details: for effect (mode of action with gentamicin) / FIC (Fractional Inhibitory Concentration Index) / MIC: MRSA 1584; for MIC, Gentamicin [1 mg/L] yes: MRSA 1584 (aac(6')/aph(2')), with gentamicin 1 mg/L; for FIC (Fractional Inhibitory Concentration Index): with gentamicin; for MIC: Staphylococcus aureus, 24 h, read-out: MIC, Gentamicin [1 mg/L] no, without gentamicin
Source text: Among the mechanisms of resistance to gentamicin previously described in S. aureus, the presence of enzymes that alter the structure of aminoglycosides is crucial. These enzymes can transfer nucleotides, phosphates, or acetyls to various −OH or −NH2 groups of gentamicin, preventing its subsequent interaction with the cellular target, i.e., the 30S ribosomal subunit. The bifunctional aminoglycoside-modifying enzyme with acetylation and phosphotransferase activities encoded by the gene aac(6’)/aph(2’), 4′,4″ adenyltransferase encoded by the aadD gene, and aminoglycoside O-phosphotransferase encoded by the gene aph(3′) are the most important.[37] […] For this reason, further testing continued using strains MRSA 3596 and MRSA 1584, which inactivate gentamicin only by a single mechanism (aadD and aac(6’)-aph(2’’), respectively).
(§1) Sensitization of multidrug-resistant clinical bacterial strains was performed according to ref[15]. Antibiotic cutoff concentration was chosen according to the European Committee on Antimicrobial Susceptibility Testing (EUCAST, Clinical breakpoints–bacteria, ver. 11.0). The 200 μM concentration of the derivatives was chosen as the highest test concentration. The absorbance detected at 600 nm was then used to estimate the number of viable cells after 24 h of incubation at 37 °C and 120 rpm.
(§2) Experiments were performed with the respective number of replicates indicated in each figure/table. MIC was determined as IC70. Both IC70 and IC50 values were calculated using the following nonlinear regression in the software GraphPad Prism: […]

RAW 264.7 cells = assay: Cellular antioxidant activity (CAA); type: cell-based, Murine; details: for IC50: average of four repetitions ± standard error of the mean; for change of antioxidant activity compared to the parent compound, in words: CAA in macrophages
Procedure: To evaluate the antioxidant activity of the prepared derivatives and the respective parent compounds, cellular antioxidant activity (CAA) was measured in macrophages. Compared to other in vitro antioxidant assays, this method provides partial information about the uptake and metabolism of the compounds, because, in this assay, they must first enter the cell to exert antioxidant activity.[31] […] Derivatization of quercetin at C-8 with 4-fluoroaniline (5) increased the antioxidant activity of quercetin by 1.7-fold. […] The concentration of these derivatives required to halve the cellular radicals decreased 1.5-fold compared to luteolin.
Cellular antioxidant capacity was evaluated as previously described.[31],[39] Briefly, 100 μL of RAW 264.7 cells with a density corresponding to 1 × 10^6 cells/mL were split into 96-well plates. After 24 h, cells were washed with PBS, and DMEM supplemented with DCFH-DA (0.0125 mg/mL) was added to each well together with the tested samples in the concentration range of 1.5–200 μM. After 1 h incubation in a CO2 incubator, the medium was replaced with AAPH solution (0.16 mg/mL in PBS), and fluorescence was immediately recorded (ex./em. 485/540 nm) for 2 h in 5 min intervals.

[1] = tested on: transmembrane efflux pumps; assay: Ethidium bromide accumulation assay; type: cell-based, S. aureus MSSA 2; details: for efflux inhibition (ethidium bromide accumulation), in words: compared with comparator CCCP, concentrations 25–100 μM; for accumulation of ethidium bromide compared to 100 μM CCCP: compound at 25 μM, relative to CCCP (100 μM)
Source text: The application of antibiotics often leads to oxidative stress in bacteria, which triggers the efflux pump systems that contribute to antimicrobial resistance.[34] Therefore, modulation of the efflux system has been proposed as another plausible target of derivatives. The efflux pump inhibitor carbonyl cyanide 3-chlorophenylhydrazone (CCCP) was used as a comparator in our assay. Its action destroys the proton-motive force at the membrane so that the efflux pump cannot transport substrates out of the cell. One such universal substrate is ethidium bromide, the accumulation of which in the cell can be measured using fluorescence.
The accumulation assay was performed according to previously published methods with minor modifications.[15],[42] Briefly, a bacterial culture of S. aureus MSSA 2 cultured overnight in the presence of colistin (4 mg/L) to induce oxidative stress and activate efflux system[34] was diluted in PBS to OD600 nm = 0.6. The suspension was centrifuged (13,000 × g; 3 min), resuspended in fresh PBS, and distributed into the wells of a black 96-well microtiter plate (ThermoFisher Scientific). Samples were diluted with EtBr solution (4 μg/mL). 50 μL of the mixture was added to 50 μL of the bacterial suspension. The reaction was monitored using SpectraMax iD5Multi-Mode Microplate Reader (ex/em = 530/600 nm) every 60 s for 60 min.

[2] = tested on: Methicilin-Resistant S. aureus 331 Strain; assay: Mode of antimicrobial action with erythromycin, ermC-positive strain; type: cell-based; details: for MIC, erythromycin [1 mg/L] yes / MIC, erythromycin [1 mg/L] no: MRSA 331 (ermC); for MIC, erythromycin [1 mg/L] yes: with erythromycin 1 mg/L; for MIC, erythromycin [1 mg/L] no: without erythromycin; for FIC (Fractional Inhibitory Concentration Index): with erythromycin
Source text: Erythromycin is a macrolide antibiotic that inhibits proteosynthesis by binding to the 50S subunit of the ribosome. In Staphylococcus species, resistance to erythromycin is associated with the presence of methyltransferases (encoded by erm genes) that alter the ribosomal target site. Another typical mechanism of resistance to erythromycin is the presence of an ATP-dependent efflux pump encoded by the msr(A) gene or a major facilitator superfamily (MFS) pump encoded by the lmrS gene. Both efflux pumps reduce the concentration of erythromycin in the cell below the therapeutic dose by transporting it across the membrane to the extracellular space. Another erythromycin resistance gene is the mph(C) gene, the product of which is a phosphotransferase that alters the structure of macrolide antibiotics. To elucidate the mechanism of erythromycin resistance modulation in S. aureus, further tests were performed with the strains MRSA 331 and MRSA 3596, which inactivate erythromycin via a single mechanism (ermC and ermA, respectively). […] Therefore, if the activity was not strain-specific, it would be necessary to consider the effect of the derivatives on this pump (Table 3).
as §1, §2

[3] = Mus musculus, RAW264.7, macrophages RAW 264.7

| SMILES | effect (mode of action with gentamicin) (MRSA 1584) | MIC, Gentamicin [1 mg/L] yes (MRSA 1584) [µM] | FIC (Fractional Inhibitory Concentration Index) (MRSA 1584) | MIC (MRSA 1584) [µM] | IC50 (RAW 264.7 cells; [3]) [µM] | efflux inhibition (ethidium bromide accumulation), in words [1] | accumulation of ethidium bromide compared to 100 μM CCCP [1] | MIC, erythromycin [1 mg/L] yes [2] [µM] | MIC, erythromycin [1 mg/L] no [2] [µM] | FIC (Fractional Inhibitory Concentration Index) ([2]; MRSA 331) | change of antioxidant activity compared to the parent compound, in words (RAW 264.7 cells) | effect (mode of action with erythromycin) ([2]; MRSA 331) | IC50 (RAW 264.7 cells; macrophages RAW 264.7) [µM] |
| --- | --- | --- | --- | --- | --- | --- | --- | --- | --- | --- | --- | --- | --- |
| O=c1cc(-c2ccc(O)c(O)c2)oc2c(Nc3ccc(F)cc3)c(O)cc(O)c12 [compound 11, 2-(3,4-Dihydroxyphenyl)-8-(4-fluoroanilino)-5,7-dihydroxy-4H–1-benzopyran-4-one] | additive (> 0.5-1 indicates additive effects) | 15.7 ± 0.9 (≈ 6.21 µg/mL) | 0.65 ± 0.06 | 24.1 ± 0.7 (≈ 9.53 µg/mL) | 2.9 ± 0.2 | higher activity than CCCP alone | comparable to 8-(4-fluoroanilino) quercetin (5) | 57.4 ± 0.2 (≈ 22.7 µg/mL) | 57.6 ± 0.2 (≈ 22.8 µg/mL) | 1.00 ± 0.01 |  |  |  |
| COc1ccc(Nc2c(O)cc(O)c3c(=O)cc(-c4ccc(O)c(O)c4)oc23)cc1 [compound 12, 2-(3,4-Dihydroxyphenyl)-8-(4-methoxyanilino)-5,7-dihydroxy-4H–1-benzopyran-4-one] | additive (> 0.5-1 indicates additive effects) | 47.1 ± 0.8 (≈ 19.2 µg/mL) | 0.65 ± 0.03 | 72.9 ± 2.4 (≈ 29.7 µg/mL) | 3.4 ± 0.1 |  |  | 54.8 ± 0.4 (≈ 22.3 µg/mL) | 54.4 ± 2.1 (≈ 22.2 µg/mL) | 1.01 ± 0.05 |  |  |  |
| O=c1cc(-c2ccc(O)c(O)c2)oc2c(Nc3ccc(C(F)(F)F)cc3)c(O)cc(O)c12 [compound 14, 2-(3,4-Dihydroxyphenyl)-8-(4-(trifluoromethyl)anilino)-5,7-dihydroxy-4H–1-benzopyran-4-one] | indifferent (> 1 to < 2 indicates indifference) | 26.1 ± 1.6 (≈ 11.6 µg/mL) | 1.71 ± 0.26 | 15.3 ± 1.3 (≈ 6.81 µg/mL) | > 12.5 |  |  | 27.0 ± 1.5 (≈ 12 µg/mL) | 27.0 ± 5.1 (≈ 12 µg/mL) | 1.00 ± 0.25 | significantly decreased the antioxidant activity |  |  |
| O=c1c(O)c(-c2ccc(O)c(O)c2)oc2c(Nc3ccc(C(F)(F)F)cc3)c(O)cc(O)c12 [compound 8, 2-(3,4-Dihydroxyphenyl)-8-(4-(trifluoromethyl)anilino)-3,5,7-trihydroxy-4H–1-benzopyran-4-one] | additive (> 0.5-1 indicates additive effects) | 23.9 ± 0.1 (≈ 11 µg/mL) |  | 24.5 ± 0.4 (≈ 11.3 µg/mL) | 11.5 ± 0.3 |  |  | 15.9 ± 0.8 (≈ 7.34 µg/mL) | 6.9 ± 0.2 (≈ 3.18 µg/mL) |  | significantly decreased the antioxidant activity | antagonism (≥2 indicates antagonism) |  |
| O=c1cc(-c2ccc(O)c(O)c2)oc2c(Nc3ccccc3)c(O)cc(O)c12 [compound 13, 2-(3,4-Dihydroxyphenyl)-8-(anilino)-5,7-dihydroxy-4H–1-benzopyran-4-one] | additive (> 0.5-1 indicates additive effects) | 49.9 ± 8.1 (≈ 18.8 µg/mL) | 0.70 ± 0.12 | 70.9 ± 0.3 (≈ 26.8 µg/mL) | 3.1 ± 0.1 |  |  |  |  |  |  |  |  |
| O=c1c(O)c(-c2ccc(O)c(O)c2)oc2c(Nc3ccc(F)cc3)c(O)cc(O)c12 [compound 5, 2-(3,4-Dihydroxyphenyl)-8-(4-fluoroanilino)-3,5,7-trihydroxy-4H–1-benzopyran-4-one] | additive (> 0.5-1 indicates additive effects) | 28.2 ± 0.5 (≈ 11.6 µg/mL) | 0.97 ± 0.02 | 29.2 ± 0.1 (≈ 12 µg/mL) | 3.4 ± 0.2 |  | 75% |  |  |  |  |  |  |
| O=c1c(O)c(-c2ccc(O)c(O)c2)oc2cc(O)cc(O)c12 [compound 4, quercetin, reference compound] | additive (> 0.5-1 indicates additive effects) | 55.6 ± 1.1 (≈ 16.8 µg/mL) | 0.63 ± 0.01 | 88.6 ± 0.3 (≈ 26.8 µg/mL) | 5.9 ± 0.4 | efflux inhibitors |  | 190.9 ± 0.5 (≈ 57.7 µg/mL) | 193.1 ± 1.0 (≈ 58.4 µg/mL) | 0.99 ± 0.01 |  |  | 5.85 |
| O=c1cc(-c2ccc(O)c(O)c2)oc2cc(O)cc(O)c12 [compound 10, luteolin, reference compound] | additive (> 0.5-1 indicates additive effects) | 7.6 ± 1.0 (≈ 2.18 µg/mL) | 0.50 ± 0.11 | 15.2 ± 1.4 (≈ 4.35 µg/mL) | 4.5 ± 0.5 | significantly better than CCCP at the same concentration (100 μM) |  | 31.6 ± 2.5 (≈ 9.05 µg/mL) | 28.1 ± 0.3 (≈ 8.04 µg/mL) | 1.12 ± 0.10 |  |  | 4.48 |
| O=c1cc(-c2ccc(O)c(O)c2)oc2c(Nc3cccc(F)c3)c(O)cc(O)c12 [compound 15, 2-(3,4-Dihydroxyphenyl)-8-(3-fluoroanilino)-5,7-dihydroxy-4H–1-benzopyran-4-one] | additive (> 0.5-1 indicates additive effects) | 27.6 ± 0.5 (≈ 10.9 µg/mL) | 0.96 ± 0.02 | 28.6 ± 0.1 (≈ 11.3 µg/mL) | 6.7 ± 0.2 |  |  |  |  |  | significantly decreased the antioxidant activity |  |  |

Source: publication PMC11325505, “Nitrogen-Containing Flavonoids—Preparation and Biological Activity” (ACS Omega, 2024)
